Experimental data published in PMC7377239, “Cardiovascular Effects of Polychlorinated Biphenyls and Their Major Metabolites” (Environmental Health Perspectives, 2020).
Where two headings read alike, the source gives them in different places.

Legend:
[1] = test system: HUVECs; assay: High-content imaging cytotoxicity in HUVECs, 24 h; format: cell-based, human; conditions: Homo sapiens, HUVEC, 24 h; for viability at 0.01 µM / activity at 0.01 µM / viability at 0.1 µM / activity at 0.1 µM / viability at 1 µM / activity at 1 µM / viability at 10 µM / activity at 10 µM / viability at 100 µM / activity at 100 µM: 0.00 µM = 100.00; for viability at 0.1 µM / activity at 0.1 µM: 0.10 µM
Method in brief: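 Read-out: multiwavelength high-content imaging of Hoechst 33342, MitoTracker Orange and calcein AM after 24 h compound exposure of confluent HUVEC monolayers. POD values were set using a one-SD cutoff from vehicle (0.5% DMSO) means; with no concentration–response, 100μM was assigned as no observable adverse effect level.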

[2] = test system: iCell endothelial cells (human iPSC-derived ECs); assay: High-content imaging cytotoxicity in iCell endothelial cells, 24 h; format: cell-based; conditions: Homo sapiens, Endothelial cell, 24 hr; for viability at 0.1 µM / activity at 0.1 µM: 0.10 µM
Method in brief: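 Readouts were vehicle-normalised and fitted to a four-parameter logistic model. POD was set at one SD beyond 0.5% DMSO control means, and 100 µM was assigned when no response was seen. Cells were monolayers of iCell endothelial cells imaged after 24 h compound exposure using nuclear, mitochondrial and calcein dyes.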

[3] = HUVECs, 24 hr, read-out: huvec.cyto.24hr
[4] = HUVECs, 24 hr, read-out: huvec.mito.24hr
[5] = HUVECs, 24 hr, read-out: huvec.mitoint.24hr
[6] = HUVECs, 24 hr, read-out: huvec.nma.24hr
[7] = HUVECs, 24 hrs, read-out: huvec.tc.24hrs
[8] = iPSC-EC, 0.00 µM control = 100.00, read-out: endo.cyto.24hr
[9] = iPSC-EC, 0.00 µM control = 100.00, read-out: endo.mito.24hr
[10] = iPSC-EC, 0.00 µM control = 100.00, read-out: endo.mitoint.24hr
[11] = iPSC-EC, 0.00 µM control = 100.00, read-out: endo.nma.24hr
[12] = iPSC-EC, 0.00 µM control = 100.00, read-out: endo.tc.24hrs

Work on `Oc1ccc(-c2ccc(Cl)cc2)cc1` [4'-OH PCB3] yielded a viability at 0.01 µM [1, 3] of 86.4%, an activity at 0.01 µM [1, 4] of 85.6% and an activity at 0.01 µM [1, 5] of 96.8%. The activity at 0.01 µM [1, 6] was 96.6%, the viability at 0.1 µM [1, 3] was 96.6% and the activity at 0.1 µM [1, 4] was 95.3%. The activity at 0.1 µM [1, 5] was 115%, the activity at 0.1 µM [1, 6] was 97.7% and the viability at 1 µM [1, 3] was 97.8%. For the same compound, the activity at 1 µM [1, 4] was 97.4%, the activity at 1 µM [1, 5] was 107% and the activity at 1 µM [1, 6] was 102%. It also gave a viability at 10 µM [1, 3] of 92.7%, an activity at 10 µM [1, 4] of 86.8% and an activity at 10 µM [1, 5] of 95.9%. For the same compound, the activity at 10 µM [1, 6] was 92.6%, the viability at 100 µM [1, 3] was 73.5% and the activity at 100 µM [1, 4] was 36.5%. The activity at 100 µM [1, 5] was 11.1%, the activity at 100 µM [1, 6] was 80.7% and the minimal effective concentration ([1]; HUVECs, 24 hr, top concentration 100.00 µM, read-out: huvec.cyto.24hr POD) was 7.01 µM. For the same compound, the minimal effective concentration ([1]; HUVECs, 24 hr, top concentration 100.00 µM, read-out: huvec.mito.24hr POD) was 3.9 µM, the minimal effective concentration ([1]; HUVECs, 24 hr, top concentration 100.00 µM, read-out: huvec.mitoint.24hr POD) was 11.2 µM and the minimal effective concentration ([1]; HUVECs, 24 hr, top concentration 100.00 µM, read-out: huvec.nma.24hr POD) was 6.91 µM. The viability at 0.01 µM [1, 7] was 86.4%, the viability at 0.1 µM [1, 7] was 96.6% and the viability at 1 µM [1, 7] was 97.8%. For the same compound, the viability at 10 µM [1, 7] was 93.3%, the viability at 100 µM [1, 7] was 77.9% and the minimal effective concentration ([1]; HUVECs, 24 hrs, top concentration 100.00 µM, read-out: huvec.tc.24hrs POD) was 7.01 µM. It also gave a viability at 0.01 µM [2, 8] of 96.3%, an activity at 0.01 µM [2, 9] of 96.6% and an activity at 0.01 µM [2, 10] of 113%. For the same compound, the activity at 0.01 µM [2, 11] was 100%, the viability at 0.01 µM [2, 12] was 96.3% and the viability at 0.1 µM [2, 8] was 95%. The activity at 0.1 µM [2, 9] was 95.4%, the activity at 0.1 µM [2, 10] was 105% and the activity at 0.1 µM [2, 11] was 98.9%. The viability at 0.1 µM [2, 12] was 95%, the viability at 1 µM [2, 8] was 99.8% and the activity at 1 µM [2, 9] was 99.9%. The activity at 1 µM [2, 10] was 108%, the activity at 1 µM [2, 11] was 97.4% and the viability at 1 µM [2, 12] was 99.8%. For the same compound, the viability at 10 µM [2, 8] was 104%, the activity at 10 µM [2, 9] was 105% and the activity at 10 µM [2, 10] was 119%. It also gave an activity at 10 µM [2, 11] of 96%, a viability at 10 µM [2, 12] of 104% and a viability at 100 µM [2, 8] of 39.7%. The activity at 100 µM [2, 9] was 40.3%, the activity at 100 µM [2, 10] was 91.2% and the activity at 100 µM [2, 11] was 101%. For the same compound, the viability at 100 µM [2, 12] was 69.7%, the minimal effective concentration ([2]; iPSC-EC, top concentration 100.00 µM, read-out: endo.cyto.24hr POD) was 41.1 µM and the minimal effective concentration ([2]; iPSC-EC, top concentration 100.00 µM, read-out: endo.mito.24hr POD) was 41.1 µM. For the same compound, the minimal effective concentration ([2]; iPSC-EC, top concentration 100.00 µM, read-out: endo.mitoint.24hr POD) was 100 µM, the minimal effective concentration ([2]; iPSC-EC, top concentration 100.00 µM, read-out: endo.nma.24hr POD) was 100 µM and the minimal effective concentration ([2]; iPSC-EC, top concentration 100.00 µM, read-out: endo.tc.24hrs POD) was 52 µM.

For `Oc1ccc(-c2ccc(Cl)cc2)cc1` [4'-OH-PCB 3], the minimal effective concentration ([1]; cyto, 24 hr, read-out: POD huvec.cyto.24hr) was 7.01 µM, the minimal effective concentration ([1]; mito, 24 hr, read-out: POD huvec.mito.24hr) was 3.9 µM and the minimal effective concentration ([1]; mitoint, 24 hr, read-out: POD huvec.mitoint.24hr) was 11.2 µM. It also gave a minimal effective concentration ([1]; nma, 24 hr, read-out: POD huvec.nma.24hr) of 6.91 µM, a minimal effective concentration ([1]; tc, 24 hr, read-out: POD huvec.tc.24hr) of 7.01 µM and a minimal effective concentration ([2]; endothelial cells (endo), cyto, read-out: POD endo.cyto.24hr) of 41.1 µM. The minimal effective concentration ([2]; endothelial cells (endo), mito, read-out: POD endo.mito.24hr) was 41.1 µM, the minimal effective concentration ([2]; endothelial cells (endo), mitoint, read-out: POD endo.mitoint.24hr) was 100 µM and the minimal effective concentration ([2]; endothelial cells (endo), nma, read-out: POD endo.nma.24hr) was 100 µM. For the same compound, the minimal effective concentration ([2]; endothelial cells (endo), tc, read-out: POD endo.tc.24hr) was 52 µM.
